According to patent US6525001B1, “Substituted pyrimidine and pyridine herbicides” (Mid-American Commercialization Corporation, priority 1997, dated 2003):

How the values were obtained:
Format in all cases: in vivo
Design in all cases: key: 0 is no effect; 10 is complete control
[1] = system: morningglory (Ipomoea spp.); assay: Test A pre-/postemergence; conditions: 0 to 10 scale
Description: (§1) Seeds of barnyardgrass (Echinochloa crus-galli), crabgrass (Digitaria spp.), morningglory (Ipomoea spp.), and velvetleaf (Abutilon theophrasti) were planted into a sandy loam soil and treated preemergence by soil drench with test chemicals formulated in a non-phytotoxic solvent mixture which includes a surfactant. At the same time, these crop and weed species were also treated postemergence sprayed to runoff, with test chemicals formulated in the same manner. Plants ranged in height from two to eighteen cm and were in the one to two leaf stage for the postemergence treatment. Treated plants and untreated controls were maintained in a greenhouse for approximately eleven days, after which all treated plants were compared to untreated controls and visually evaluated for injury. Plant response ratings, summarized in Table A, are based on a 0 to 10 scale where 0 is no effect and 10 is complete control. A dash (−) response means no test results.

[2] = system: velvetleaf (Abutilon theophrasti); assay: Test A pre-/postemergence; conditions: 0 to 10 scale
Description: as §1

[3] = system: barnyardgrass (Echinochloa crus-galli); assay: Test A pre-/postemergence; conditions: 0 to 10 scale
Description: as §1

[4] = system: crabgrass (Digitaria spp.); assay: Test A pre-/postemergence; conditions: 0 to 10 scale
Description: as §1

[5] = system: cocklebur (Xanthium strumarium); assay: Test B pre-/postemergence
Outline: (§2)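 Seeds were planted and sprayed preemergence, while plants at 2 to 18 cm (1- to 4-leaf stage) were sprayed postemergence at the same time, with test chemical in a non-phytotoxic solvent mixture containing surfactant. After twelve to sixteen days in a greenhouse, injury was rated visually against untreated controls on a 0–10 scale.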

[6] = system: giant foxtail (Setaria faberii); assay: Test B pre-/postemergence
Outline: as §2

[7] = system: pigweed (Amaranthus retroflexus); assay: Test B pre-/postemergence
Outline: as §2

[8] = system: velvetleaf (Abutilon theophrasti); assay: Test B pre-/postemergence
Outline: as §2

[9] = system: sugar beet (Beta vulgaris); assay: Test B pre-/postemergence
Outline: as §2

[10] = system: crabgrass (Digitaria sanguinalis); assay: Test B pre-/postemergence
Outline: as §2

[11] = system: purple nutsedge (Cyperus rotundus); assay: Test B pre-/postemergence
Outline: as §2

rape (Brassica napus) = assay: Test B pre-/postemergence
Outline: as §2

soybean (Glycine max) = assay: Test B pre-/postemergence
Outline: as §2

corn (Zea mays) = assay: Test B pre-/postemergence
Outline: as §2

wild oat (Avena fatua) = assay: Test B pre-/postemergence
Outline: as §2

[12] = system: broadleaf signalgrass (Brachiaria decumbens); assay: Test B pre-/postemergence
Outline: as §2

[13] = system: blackgrass (Alopecurus myosuroides); assay: Test B pre-/postemergence
Outline: as §2

[14] = system: momingglory (Ipomoea hederacea); assay: Test B pre-/postemergence
Outline: as §2

[15] = system: wheat (Triticum aestivum); assay: Test B pre-/postemergence
Outline: as §2

[16] = system: bedstraw (Galium aparine); assay: Test B pre-/postemergence
Outline: as §2

[17] = system: smallflower flatsedge (Cyperus difformis); assay: Test B flood test
Outline: (§3)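 Plants were grown to the 2-leaf stage before treatment with test chemical, then held in a greenhouse for twelve to sixteen days. Injury was visually rated against untreated controls on a 0–10 scale, where 0 is no effect and 10 is complete control.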

rice (Oryza sativa) = assay: Test B flood test
Outline: as §3

[18] = system: duck salad (Heteranthera limosa); assay: Test B flood test
Outline: as §3

[19] = system: bamyardgrass (Echinochloa crus-galli); assay: Test B flood test
Outline: as §3

[20] = PRE SOIL DRENCH, Rate 1000 g/ha
[21] = PRE SOIL DRENCH, Rate 2000 g/ha
[22] = postemergence SPRAYED TO RUNOFF, Rate 500 g/ha
[23] = postemergence SPRAYED TO RUNOFF, Rate 1000 g/ha
[24] = Preemergence, Rate 62 g/ha, scale of 0 to 10
[25] = Rate 62 g/ha, Postemergence (flood test)
[26] = Rate 125 g/ha, Postemergence section (flood test species)
[27] = Rate 250 g/ha, Postemergence (flood test species)

## Cc1cnc(-c2ccccc2)nc1Cn1cnc(C(F)(F)F)c1 [Compound 8]
[1]; [20]
  Plant response rating, Morningglory: 9
[1]; [21]
  Plant response rating, Morningglory: 8
[1]; [22]
  Plant response rating, Morningglory: 3
[1]; [23]
  Plant response rating, Morningglory: 7
[2]; [20]
  Plant response rating, Velvetleaf: 2
[2]; [21]
  Plant response rating, Velvetleaf: 3
[2]; [22]
  Plant response rating, Velvetleaf: 1
[2]; [23]
  Plant response rating, Velvetleaf: 2
[3]; [20]
  Plant response rating, Barnyardgrass: 4
[3]; [21]
  Plant response rating, Barnyardgrass: 7
[3]; [22]
  Plant response rating, Barnyardgrass: 3
[3]; [23]
  Plant response rating, Barnyardgrass: 3
[4]; [20]
  Plant response rating, Crabgrass: 9
[4]; [21]
  Plant response rating, Crabgrass: 10
[4]; [22]
  Plant response rating, Crabgrass: 8
[4]; [23]
  Plant response rating, Crabgrass: 5

## N#Cc1ccc(-c2nccc(C(=O)c3cccc(C(F)(F)F)c3)n2)cc1 [Compound 78]
[5]; [24]
  Plant response rating, Cocklebur: 0
[5]; Rate 62 g/ha, Postemergence
  Cocklebur plant response rating: 0
[5]; Rate 125 g/ha, Postemergence
  Cocklebur plant response rating: 0
[5]; Rate 125 g/ha, Preemergence
  Plant response rating, Cocklebur: 0
[5]; Rate 250 g/ha, Postemergence
  Plant response rating, Cocklebur: 0
[5]; Rate 250 g/ha, Preemergence
  Plant response rating, Cocklebur: 0
[6]; [24]
  Plant response rating, Giant foxtail: 0
[6]; Rate 62 g/ha, Postemergence
  Giant foxtail plant response rating: 0
[6]; Rate 125 g/ha, Postemergence
  Giant foxtail plant response rating: 0
[6]; Rate 125 g/ha, Preemergence
  Plant response rating, Giant foxtail: 0
[6]; Rate 250 g/ha, Postemergence
  Plant response rating, Giant foxtail: 0
[6]; Rate 250 g/ha, Preemergence
  Plant response rating, Giant foxtail: 0
[7]; [24]
  Plant response rating, Redroot pigweed: 0
[7]; Rate 62 g/ha, Postemergence
  Redroot pigweed plant response rating: 0
[7]; Rate 125 g/ha, Postemergence
  Redroot pigweed plant response rating: 0
[7]; Rate 125 g/ha, Preemergence
  Plant response rating, Redroot pigweed: 0
[7]; Rate 250 g/ha, Postemergence
  Plant response rating, Redroot pigweed: 4
[7]; Rate 250 g/ha, Preemergence
  Plant response rating, Redroot pigweed: 0
[8]; [24]
  Plant response rating, Velvetleaf: 0
[8]; Rate 62 g/ha, Postemergence
  Velvetleaf plant response rating: 0
[8]; Rate 125 g/ha, Postemergence
  Velvetleaf plant response rating: 0
[8]; Rate 125 g/ha, Preemergence
  Plant response rating, Velvetleaf: 0
[8]; Rate 250 g/ha, Postemergence
  Plant response rating, Velvetleaf: 0
[8]; Rate 250 g/ha, Preemergence
  Plant response rating, Velvetleaf: 0
[9]; [24]
  Plant response rating, Sugarbeets: 0
[9]; Rate 62 g/ha, Postemergence
  Sugarbeets plant response rating: 0
[9]; Rate 125 g/ha, Postemergence
  Sugarbeets plant response rating: 0
[9]; Rate 125 g/ha, Preemergence
  Plant response rating, Sugarbeets: 0
[9]; Rate 250 g/ha, Postemergence
  Plant response rating, Sugarbeets: 0
[9]; Rate 250 g/ha, Preemergence
  Plant response rating, Sugarbeets: 0
[10]; [24]
  Plant response rating, Crabgrass: 0
[10]; Rate 62 g/ha, Postemergence
  Crabgrass plant response rating: 0
[10]; Rate 125 g/ha, Postemergence
  Crabgrass plant response rating: 0
[10]; Rate 125 g/ha, Preemergence
  Plant response rating, Crabgrass: 0
[10]; Rate 250 g/ha, Postemergence
  Plant response rating, Crabgrass: 0
[10]; Rate 250 g/ha, Preemergence
  Plant response rating, Crabgrass: 0
[11]; [24]
  Plant response rating, Nutsedge: 0
[11]; Rate 62 g/ha, Postemergence
  Nutsedge plant response rating: 0
[11]; Rate 125 g/ha, Postemergence
  Nutsedge plant response rating: 0
[11]; Rate 125 g/ha, Preemergence
  Plant response rating, Nutsedge: 0
[11]; Rate 250 g/ha, Postemergence
  Plant response rating, Nutsedge: 0
[11]; Rate 250 g/ha, Preemergence
  Plant response rating, Nutsedge: 0
Rape (Brassica napus); [24]
  Plant response rating, Rape: 0
Rape (Brassica napus); Rate 62 g/ha, Postemergence
  Rape plant response rating: 0
Rape (Brassica napus); Rate 125 g/ha, Postemergence
  Rape plant response rating: 0
Rape (Brassica napus); Rate 125 g/ha, Preemergence
  Plant response rating, Rape: 0
Rape (Brassica napus); Rate 250 g/ha, Postemergence
  Plant response rating, Rape: 0
Rape (Brassica napus); Rate 250 g/ha, Preemergence
  Plant response rating, Rape: 0
Soybean (Glycine max); [24]
  Plant response rating, Soybean: 0
Soybean (Glycine max); Rate 62 g/ha, Postemergence
  Soybean plant response rating: 0
Soybean (Glycine max); Rate 125 g/ha, Postemergence
  Soybean plant response rating: 0
Soybean (Glycine max); Rate 125 g/ha, Preemergence
  Plant response rating, Soybean: 0
Soybean (Glycine max); Rate 250 g/ha, Postemergence
  Plant response rating, Soybean: 0
Soybean (Glycine max); Rate 250 g/ha, Preemergence
  Plant response rating, Soybean: 0
Corn (Zea mays); [24]
  Plant response rating, Corn: 0
Corn (Zea mays); Rate 62 g/ha, Postemergence
  Corn plant response rating: 0
Corn (Zea mays); Rate 125 g/ha, Postemergence
  Corn plant response rating: 0
Corn (Zea mays); Rate 125 g/ha, Preemergence
  Plant response rating, Corn: 0
Corn (Zea mays); Rate 250 g/ha, Postemergence
  Plant response rating, Corn: 2
Corn (Zea mays); Rate 250 g/ha, Preemergence
  Plant response rating, Corn: 0
Wild oat (Avena fatua); [24]
  Plant response rating, Wild oats: 0
Wild oat (Avena fatua); Rate 62 g/ha, Postemergence
  Wild oats plant response rating: 0
Wild oat (Avena fatua); Rate 125 g/ha, Postemergence
  Wild oats plant response rating: 0
Wild oat (Avena fatua); Rate 125 g/ha, Preemergence
  Plant response rating, Wild oats: 0
Wild oat (Avena fatua); Rate 250 g/ha, Postemergence
  Plant response rating, Wild oats: 0
Wild oat (Avena fatua); Rate 250 g/ha, Preemergence
  Plant response rating, Wild oats: 0
[12]; Rate 62 g/ha, Postemergence
  B. signalgrass plant response rating: 0
[12]; Rate 62 g/ha, Preemergence
  B. signalgrass plant response rating: 0
[12]; Rate 125 g/ha, Postemergence
  B. signalgrass plant response rating: 0
[12]; Rate 125 g/ha, Preemergence
  Plant response rating, B. signalgrass: 0
[12]; Rate 250 g/ha, Postemergence
  Plant response rating, B. signalgrass: 1
[12]; Rate 250 g/ha, Preemergence
  Plant response rating, B. signalgrass: 0
[13]; [24]
  Plant response rating, Blackgrass: 0
[13]; Rate 62 g/ha, Postemergence
  Blackgrass plant response rating: 0
[13]; Rate 125 g/ha, Postemergence
  Blackgrass plant response rating: 0
[13]; Rate 125 g/ha, Preemergence
  Plant response rating, Blackgrass: 0
[13]; Rate 250 g/ha, Postemergence
  Plant response rating, Blackgrass: 1
[13]; Rate 250 g/ha, Preemergence
  Plant response rating, Blackgrass: 0
[14]; [24]
  Plant response rating, Morningglory: 0
[14]; Rate 62 g/ha, Postemergence
  Morningglory plant response rating: 0
[14]; Rate 125 g/ha, Postemergence
  Morningglory plant response rating: 0
[14]; Rate 125 g/ha, Preemergence
  Plant response rating, Morningglory: 0
[14]; Rate 250 g/ha, Postemergence
  Plant response rating, Morningglory: 2
[14]; Rate 250 g/ha, Preemergence
  Plant response rating, Morningglory: 0
[15]; [24]
  Plant response rating, Wheat: 0
[15]; Rate 62 g/ha, Postemergence
  Wheat plant response rating: 0
[15]; Rate 125 g/ha, Postemergence
  Wheat plant response rating: 0
[15]; Rate 125 g/ha, Preemergence
  Plant response rating, Wheat: 0
[15]; Rate 250 g/ha, Postemergence
  Plant response rating, Wheat: 0
[15]; Rate 250 g/ha, Preemergence
  Plant response rating, Wheat: 0
[16]; [24]
  Plant response rating, Bedstraw: 0
[16]; Rate 62 g/ha, Postemergence
  Bedstraw plant response rating: 0
[16]; Rate 125 g/ha, Postemergence
  Bedstraw plant response rating: 0
[16]; Rate 125 g/ha, Preemergence
  Plant response rating, Bedstraw: 0
[16]; Rate 250 g/ha, Postemergence
  Plant response rating, Bedstraw: 0
[16]; Rate 250 g/ha, Preemergence
  Plant response rating, Bedstraw: 0
[17]; [25]
  S. Flatsedge plant response rating: 0
[17]; [26]
  S. Flatsedge plant response rating: 0
[17]; [27]
  Plant response rating, S. Flatsedge: 0
Rice (Oryza sativa); [25]
  Rice plant response rating: 0
Rice (Oryza sativa); [26]
  Rice plant response rating: 0
Rice (Oryza sativa); [27]
  Plant response rating, Rice: 0
[18]; [25]
  Ducksalad plant response rating: 0
[18]; [26]
  Ducksalad plant response rating: 0
[18]; [27]
  Plant response rating, Ducksalad: 0
[19]; [25]
  Barnyardgrass plant response rating: 0
[19]; [26]
  Barnyardgrass plant response rating: 0
[19]; [27]
  Plant response rating, Barnyardgrass: 0
